Test results published in patent US20050255537A1, “Method for monitoring treatment with a parathyroid hormone” (priority 1999, published 2005).

System: postmenopausal women and osteoporotic men
Assay: Example 6 spine BMD treatment-response model and BCM response-indicator neural network (women and men)
Assay type: in vivo, human
Excerpt: Data from studies in Examples 1 and 5 above were further analyzed to develop more detailed models for the use of bone markers in monitoring and predicting effects of PTH on clinically significant correlates of efficacy in the treatment of osteoporosis, such as bone mineral density (BMD). Population pharmacodynamic (PD) models were developed for total lumbar spine BMD, and the following biochemical markers of bone formation and resportion: PICP, BSAP, NTX, and DPD. The final treatment-response model for total lumbar spine was used to calculate BMD values at 12 months of treatment for each patient, based on the individual's parameter estimates (empirical Bayesian estimate). These predicted BMD measurements were merged with the observed BCM values, at baseline, 1 month, and 3 months of treatment, for patients who completed at least 12 months of LY333334 treatment. A neural network was developed to characterize the relationship between BCM values at 1 and 3 months and response to treatment, as measured by change in total lumbar spine BMD.
The spine BMD placebo-response model characterized change in total lumbar spine BMD over time in osteoporotic patients taking calcium and vitamin D supplements. The BMD treatment-response model was used to characterize change in total lumbar spine BMD during the course of treatment and to identify patient factors influencing response to therapy. This model was also used to provide individual estimates of change in BMD at 12 months. The BCM treatment-response models characterized changes in PICP, BSAP, NTX, and DPD, during the course of treatment.
The individual estimates of change in spine BMD from the final treatment-response model were combined with observed BCM values to develop the response-indicator neural network. The neural network was used to evaluate change in the biochemical markers as early indicators of change in total lumbar spine BMD.
Change in total lumbar spine BMD at 12 months of treatment was calculated from the post-hoc BMD estimates for each patient from the final spine BMD treatment-response model. These BMD estimates were combined with observed BCM values at baseline, 1, and 3 months for all patients completing at least 12 months of LY333334 therapy.
Neural networks were used to evaluate the biochemical markers as potential indicators of bone mineral density response to LY333334 treatment. The relationship between change in biochemical marker values and change in spine BMD is complex and the appropriate model structure is unknown. The neural network approach was chosen to avoid the a priori assumption of a model form. A proprietary artificial neural network program developed at Eli Lilly and Company (described in Wikel J, Dow E, Heathman M. 1996. Interpretive Neural Networks for QSAR. Network Science [available on-line]) was used to evaluate the BCM values as predictors of change in spine BMD. Other back-propagation networks which are known in the art and commercially available also would provide similar results. The BCM values, as well as significant patient factors from the final spine BMD treatment-response model, were used as inputs to the neural network. The network was trained to predict change in total lumbar spine BMD.

[1] = Female Patients, BSAP at 3 Months 10-14.99 pM
[2] = Female Patients, BSAP at 3 Months 15-19.99 pM
[3] = Female Patients, BSAP at 3 Months <10 pM
[4] = Female Patients, BSAP at 3 Months ≧20 pM
[5] = Females, change in PICP at 1 month 50-99 pM, baseline PICP <100 pM
[6] = Females, change in PICP at 1 month 50-99 pM, baseline PICP ≧100 pM
[7] = Females, change in PICP at 1 month 100-149 pM, baseline PICP <100 pM
[8] = Females, change in PICP at 1 month 100-149 pM, baseline PICP ≧100 pM
[9] = Females, change in PICP at 1 month <50 pM, baseline PICP <100 pM
[10] = Females, change in PICP at 1 month <50 pM, baseline PICP ≧100 pM
[11] = Females, change in PICP at 1 month ≧150 pM, baseline PICP ≧100 pM
[12] = Male Patients, BSAP at 3 Months 10-14.99 pM
[13] = Male Patients, BSAP at 3 Months 15-19.99 pM
[14] = Male Patients, BSAP at 3 Months <10 pM
[15] = Male Patients, BSAP at 3 Months ≧20 pM
[16] = Males, change in PICP at 1 month 50-99 pM, baseline PICP <100 pM
[17] = Males, change in PICP at 1 month 50-99 pM, baseline PICP ≧100 pM
[18] = Males, change in PICP at 1 month 100-149 pM, baseline PICP <100 pM
[19] = Males, change in PICP at 1 month 100-149 pM, baseline PICP ≧100 pM
[20] = Males, change in PICP at 1 month <50 pM, baseline PICP <100 pM
[21] = Males, change in PICP at 1 month <50 pM, baseline PICP ≧100 pM
[22] = Males, change in PICP at 1 month ≧150 pM, baseline PICP <100 pM
[23] = Males, change in PICP at 1 month ≧150 pM, baseline PICP ≧100 pM
[24] = all patients with baseline PICP >100 pM and increase in PICP >100 pM, 12 months
[25] = male patients with baseline PICP >100 pM and increase in PICP >100 pM
[26] = postmenopausal women with baseline PICP >100 pM and increase in PICP >100 pM

CC[C@H](C)[C@H](NC(=O)[C@H](CCC(=O)O)NC(=O)[C@H](CO)NC(=O)[C@@H](NC(=O)[C@@H](N)CO)C(C)C)C(=O)N[C@@H](CCC(N)=O)C(=O)N[C@@H](CC(C)C)C(=O)N[C@@H](CCSC)C(=O)N[C@@H](Cc1cnc[nH]1)C(=O)N[C@@H](CC(N)=O)C(=O)N[C@@H](CC(C)C)C(=O)NCC(=O)N[C@@H](CCCCN)C(=O)N[C@@H](Cc1cnc[nH]1)C(=O)N[C@@H](CC(C)C)C(=O)N[C@@H](CC(N)=O)C(=O)N[C@@H](CO)C(=O)N[C@@H](CCSC)C(=O)N[C@@H](CCC(=O)O)C(=O)N[C@@H](CCCN=C(N)N)C(=O)N[C@H](C(=O)N[C@@H](CCC(=O)O)C(=O)N[C@@H](Cc1c[nH]c2ccccc12)C(=O)N[C@@H](CC(C)C)C(=O)N[C@@H](CCCN=C(N)N)C(=O)N[C@@H](CCCCN)C(=O)N[C@@H](CCCCN)C(=O)N[C@@H](CC(C)C)C(=O)N[C@@H](CCC(N)=O)C(=O)N[C@@H](CC(=O)O)C(=O)N[C@H](C(=O)N[C@@H](Cc1cnc[nH]1)C(=O)N[C@@H](CC(N)=O)C(=O)N[C@@H](Cc1ccccc1)C(=O)O)C(C)C)C(C)C [LY333334]
% Change in Spine BMD at 12 Months, 5th-95th Percentiles [1]: 1.5-18.9% | % Change in Spine BMD at 12 Months, Mean [1]: 9.4% | % Change in Spine BMD at 12 Months, 5th-95th Percentiles [2]: 3.4-24.7% | % Change in Spine BMD at 12 Months, Mean [2]: 12.2% | % Change in Spine BMD at 12 Months, 5th-95th Percentiles [3]: 0.5-15.3% | % Change in Spine BMD at 12 Months, Mean [3]: 7.2% | % Change in Spine BMD at 12 Months, 5th-95th Percentiles [4]: 4.6-20.9% | % Change in Spine BMD at 12 Months, Mean [4]: 12.9% | % Change in Spine BMD at 12 Months, 5th-95th Percentiles [5]: 2.2-19.0% | % Change in Spine BMD at 12 Months, Mean [5]: 9.5% | % Change in Spine BMD at 12 Months, 5th-95th Percentiles [6]: 3.6-18.8% | % Change in Spine BMD at 12 Months, Mean [6]: 10.4% | % Change in Spine BMD at 12 Months, 5th-95th Percentiles [7]: 2.9-16.1% | % Change in Spine BMD at 12 Months, Mean [7]: 10.4% | % Change in Spine BMD at 12 Months, 5th-95th Percentiles [8]: 6.9-19.7% | % Change in Spine BMD at 12 Months, Mean [8]: 12.6% | % Change in Spine BMD at 12 Months, 5th-95th Percentiles [9]: −0.7-12.4% | % Change in Spine BMD at 12 Months, Mean [9]: 5.7% | % Change in Spine BMD at 12 Months, 5th-95th Percentiles [10]: 2.9-17.3% | % Change in Spine BMD at 12 Months, Mean [10]: 9.0% | % Change in Spine BMD at 12 Months, Mean (Females, change in PICP at 1 month ≧150 pM, baseline PICP <100 pM): 13.7% | % Change in Spine BMD at 12 Months, 5th-95th Percentiles [11]: 11.9-31.1% | % Change in Spine BMD at 12 Months, Mean [11]: 18.5% | % Change in Spine BMD at 12 Months, 5th-95th Percentiles [12]: 1.9-14.9% | % Change in Spine BMD at 12 Months, Mean [12]: 7.9% | % Change in Spine BMD at 12 Months, 5th-95th Percentiles [13]: 3.0-15.0% | % Change in Spine BMD at 12 Months, Mean [13]: 8.3% | % Change in Spine BMD at 12 Months, 5th-95th Percentiles [14]: 1.6-13.0% | % Change in Spine BMD at 12 Months, Mean [14]: 7.1% | % Change in Spine BMD at 12 Months, 5th-95th Percentiles [15]: 1.6-19.6% | % Change in Spine BMD at 12 Months, Mean [15]: 10.0% | % Change in Spine BMD at 12 Months, 5th-95th Percentiles [16]: 4.6-18.1% | % Change in Spine BMD at 12 Months, Mean [16]: 9.4% | % Change in Spine BMD at 12 Months, 5th-95th Percentiles [17]: 3.6-15.8% | % Change in Spine BMD at 12 Months, Mean [17]: 8.7% | % Change in Spine BMD at 12 Months, 5th-95th Percentiles [18]: 7.2-14.0% | % Change in Spine BMD at 12 Months, Mean [18]: 11.1% | % Change in Spine BMD at 12 Months, 5th-95th Percentiles [19]: 4.6-18.6% | % Change in Spine BMD at 12 Months, Mean [19]: 11.3% | % Change in Spine BMD at 12 Months, 5th-95th Percentiles [20]: 1.2-11.7% | % Change in Spine BMD at 12 Months, Mean [20]: 4.8% | % Change in Spine BMD at 12 Months, 5th-95th Percentiles [21]: 1.5-11.7% | % Change in Spine BMD at 12 Months, Mean [21]: 6.9% | % Change in Spine BMD at 12 Months, 5th-95th Percentiles [22]: 2.7-20.8% | % Change in Spine BMD at 12 Months, Mean [22]: 10.7% | % Change in Spine BMD at 12 Months, 5th-95th Percentiles [23]: 6.0-18.0% | % Change in Spine BMD at 12 Months, Mean [23]: 10.2% | mean increase in total lumbar spine BMD [24]: 13.6% | minimum increase in total lumbar spine BMD [24]: ≥ 4.3% | mean increase in total lumbar spine BMD [25]: 10.8% | minimum increase in total lumbar spine BMD [25]: ≥ 4.3% | mean increase in total lumbar spine BMD (men who did not meet the PICP criteria): 7.4% | mean increase in total lumbar spine BMD (patients who did not meet the PICP criteria, 12 months): 8.2% | mean increase in total lumbar spine BMD [26]: 16.0% | minimum increase in total lumbar spine BMD [26]: ≥ 5.9% | mean increase in total lumbar spine BMD (women who did not meet the PICP criteria): 8.8%
